Experiments:
Assay type in all cases: cell-based
[1] = test system: mouse peritoneal macrophages; test: OCR and ECAR (Seahorse) in mouse peritoneal macrophages; conditions: aged (18-20 mo) mouse peritoneal macrophages, 100 nM, 20 h
Procedure: Cells were plated at 1.8×10^6 cells per well in a Seahorse XF24 Cell Culture Microplate (Agilent). Cells were then treated with indicated inhibitors or agonists in each experiment for 20 h. Cells were washed twice with Agilent Seahorse XF Media (Agilent) supplemented with 1 mM pyruvate, 2 mM L-glutamine, and 10 mM D-glucose; a final volume of 525 μl was placed in each well. Cells were then incubated in a 0% CO2 chamber at 37° C. for 1 h before being placed into a Seahorse XFe24 Analyzer (Agilent). For OCR and ECAR mitostress test experiments, cells were treated with 1 μM oligomycin, 2 μM carbonyl cyanide p-trifluoromethoxyphenylhydrazone (FCCP), and 0.5 μM rotenone/antimycin (indicated by three black arrows in each seahorse trace). For mitoFlex Fuel test experiments, cells were treated with UK5099 (200 μM) and BPTES (200 μM)/Etomoxir (80 μM). A total of three OCR and pH measurements were taken after each compound was administered. All Seahorse experiments were repeated at least three times unless otherwise indicated. All OCR and ECAR data were normalized to cell number per well using CyQUANT (ThermoFisher Scientific, Waltham, Mass., USA). […]
Cd11bCre, and WT mice. Mice were injected intraperitoneally with 1.5 ml 3% (w/v) thioglycolate medium (BD Biosciences), and primary macrophages were isolated 3-4 days later by flushing with ice-cold 1×PBS buffer (Corning). […]

[2] = test system: human monocyte-derived macrophages (human MDMs); test: Real-time oxygen consumption rate (OCR) and ECAR (Seahorse) in human MDMs; conditions: 20 h
Procedure: (§1) Cells were plated at 1.8×10^6 cells per well in a Seahorse XF24 Cell Culture Microplate (Agilent). Cells were then treated with indicated inhibitors or agonists in each experiment for 20 h. Cells were washed twice with Agilent Seahorse XF Media (Agilent) supplemented with 1 mM pyruvate, 2 mM L-glutamine, and 10 mM D-glucose; a final volume of 525 μl was placed in each well. Cells were then incubated in a 0% CO2 chamber at 37° C. for 1 h before being placed into a Seahorse XFe24 Analyzer (Agilent). For OCR and ECAR mitostress test experiments, cells were treated with 1 μM oligomycin, 2 μM carbonyl cyanide p-trifluoromethoxyphenylhydrazone (FCCP), and 0.5 μM rotenone/antimycin (indicated by three black arrows in each seahorse trace). For mitoFlex Fuel test experiments, cells were treated with UK5099 (200 μM) and BPTES (200 μM)/Etomoxir (80 μM). A total of three OCR and pH measurements were taken after each compound was administered. All Seahorse experiments were repeated at least three times unless otherwise indicated. All OCR and ECAR data were normalized to cell number per well using CyQUANT (ThermoFisher Scientific, Waltham, Mass., USA).
Peripheral blood mononuclear cells from de-identified healthy donors (young<35 years old, aged>65 years old) were obtained from the Stanford Blood Center and transferred to 50 ml conical tubes. Samples were diluted with 20 ml PBS and layered onto 10 ml of Ficoll-Paque (GE Healthcare) using a Pasteur pipette. Tubes were centrifuged at 1,500 r.p.m. for 25 min without brake at 20° C. The mononuclear cell layer was transferred to a new 50 ml conical tube, resuspended in 50 ml 1×PBS and centrifuged at 1500 r.p.m. for 10 min, repeated twice. After centrifugation, monocytes were isolated using a Monocyte Isolation Kit, human (MACS; Miltenyi Biotech). Cells were then plated 10×10^6 per 10-cm petri dish and differentiated for 7 days in Roswell Park Memorial Institute (RPMI) media supplemented with 10% FBS, 1% penicillin-streptomycin, and 50 ng ml^−1 M-CSF (Peprotech).

[3] = test system: mouse hippocampal neurons; test: OCR and ECAR (Seahorse) in mouse hippocampal neurons; conditions: primary mouse hippocampal neurons, 100 nM, 20 h
Procedure: as §1
Hippocampi were dissected from embryonic Day 17.5 mice embryos, dissociated using trypsin (2 mg/ml) and DNase I (0.6 mg/ml), and plated at a density of 100, 000 cells per well in Seahorse XF24 culture plate coated with poly-L-lysine. […]

mouse astrocytes = test: OCR and ECAR (Seahorse) in mouse astrocytes; conditions: primary mouse astrocytes, 100 nM, 20 h
Procedure: as §1
Primary astrocyte cultures were prepared from cerebral cortices of postnatal day 1-2 C57BL/6J mice. […]

human MDMs = test: Chemokine and cytokine multiplex assay, supernatant of human MDMs; conditions: aged (>65 yo) human MDMs, stimulated 8 h later
Procedure: Hippocampal lysates or mouse plasma were stored at −80° C. and cytokine analysis was carried out at the Human Immune Monitoring Core (Stanford University) or Eve Technologies (Calgary, Alberta, Canada) using Luminex mouse 39-plex kits and Human 71-plex kits. Plates were read using a Luminex LabMap200 instrument or a MSD Chemiluminescence instrument with a lower bound of 100 beads per sample per measured cytokine. Each sample was tested in triplicate. Mean fluorescence intensity (MFI) was averaged over duplicate wells for each cytokine per sample on each plate. All were transcardially perfused prior to isolation of hippocampi and other brain tissue.
Peripheral blood mononuclear cells from de-identified healthy donors (young<35 years old, aged>65 years old) were obtained from the Stanford Blood Center and transferred to 50 ml conical tubes. […]
Plasmid-containing human GYS1 shRNA (Table 3) or Scr (2 μg) (HuSH shRNA shGYS1 Lenti Cloning Vector [pGFP-C-shLenti]) were incubated with a mixture of nucleofection solution and P4 primary cell supplement (82 μl:18 μl nucleofection solution:supplement) and placed in nucleofection cuvettes. […] Cells were then plated in 10-cm plates and incubated 37° C. under 5% CO2 for 8 h before GYS1 protein expression was analyzed by quantitative immunoblotting.

| Structure (SMILES) | basal respiration and ECAR [1] | ECAR (extracellular acidification rate, glycolysis) ([2]; human MDMs, dose response) | basal OCR (oxygen consumption) ([2]; human MDMs, dose response) | OCR and ECAR [3] | OCR and ECAR (mouse astrocytes) | OCR in GYS1-deficient aged human MDMs ([2]; aged (>65 yo) human MDMs nucleofected with shGYS1, 100 nM, 8 h post nucleofection) | bioenergetic or immune factor phenotypes of aged human MDMs lacking GYS1 ([2]; aged human MDMs + GYS1 shRNA, 100 nM) | immune phenotypes (immune factors in supernatant) of aged human MDMs + GYS1 shRNA (human MDMs) |
| --- | --- | --- | --- | --- | --- | --- | --- | --- |
| NS(=O)(=O)c1ccc(-n2nc(C(F)(F)F)cc2-c2ccc(Cl)cc2)cc1 [SC236] | partially phenocopies EP2 receptor antagonism |  |  |  |  |  |  |  |
| CCCCC[C@H](O)/C=C/[C@H]1[C@H](O)CC(=O)[C@@H]1C/C=C\CCCC(=O)O [PGE2, prostaglandin E2] |  | decreased glycolysis | suppressed oxygen consumption | no significant effects | no significant effects |  |  |  |
| CCCC1([C@H](O)C/C=C/[C@H]2[C@H](O)CC(=O)[C@@H]2CCCCCCC(=O)OC)CCC1 [butaprost] |  |  |  | no significant effects | no significant effects | refractory to treatment | did not alter | refractory to further EP2 receptor activation |

Reference: patent publication US20220048987A1, “METHOD OF TREATMENT TO PREVENT OR REVERSE AGE-ASSOCIATED INFLAMMATION, COGNITIVE DECLINE, AND NEURODEGENERATION” (The Board of Trustees of the Leland Stanford Junior …, priority 2020, published 2022)
